# Results: patent publication US20240238232A1, “COMPOSITIONS AND METHODS FOR THE REDUCTION OR TREATMENT OF INSULIN RESISTANCE AND METABOLIC CONDITIONS” (AXCELLA HEALTH INC., priority 2018, published 2024)
# System: FATZO mouse model
# Experiment: Liver triglyceride and cholesterol content in FATZO mice on WDF, Example 5
# Format: in vivo
# Conditions: 4 weeks
# Description: NASH was induced in 60 male FATZO mice by a western diet (Research Diet #D12079B; fat 40% kcal, protein 17% kcal, carbohydrate 43% kcal) supplemented with 500 fructose in the drinking water (WDF) during a 16 week induction phase. Diets and water were available ad libitum. Littermate control male FATZO mice fed with a control diet (n=6, Purina #5008; fat 17% kcal, protein 27% kcal, carbohydrate 56% kcal) and sterile water were set up for control purpose. Mice were housed in plastic cages with microisolator. Sterilized bedding was replaced once a week. Mice were housed three per cage and maintained on a twelve hour light cycle throughout study duration. Room temperature was monitored daily and maintained at 22-25° C. Body weight was recorded every week during the induction phase.
# Following 16 weeks diet induction, 6 mice remained on control diet (group 1, Control) while 60 induced mice were randomized on body weight and plasma glucose (fed) for assignment to the following treatments. FATZO mice were administered with test articles starting at 16 weeks post western diet NASH induction for 4 weeks. Test articles were administered by oral gavage. Animals were euthanized at 20 weeks post western diet NASH induction, and tissues were harvested for analysis.
# […], […]+G, LRQNAC, OCA and Vehicle were administered by oral gavage at a volume of 10 mL/kg throughout the study. Dosages were calculated by daily body weight. […], […]+G, LRQNAC, and Vehicle were administered twice per day (BID), while OCA was administered once a day (QD) in the morning. Mice receiving OCA once per day (QD), and one vehicle QD. Doses were administered by oral gavage at 0700 and 1800 by oral gavage for 4 weeks.
# Liver triglyceride and cholesterol content were similarly elevated after WDF feeding compared to vehicle treated animals fed control diet (liver triglyceridep<00.0040; liver cholesterol: p<0.0001). Among animals fed WDF, there were no significant differences in liver triglyceride (p<0.1206) when compared to vehicle for any treatment group. […]
# [1] = oral, LIVRQNAC + G 3885 mg/kg, LRQNAC 2469 mg/kg, OCA 30 mg/kg/day
smiles,measurement,setting,value
"CC[C@H]1[C@@H](O)[C@@H]2[C@H](CC[C@]3(C)[C@@H]([C@H](C)CCC(=O)O)CC[C@@H]23)[C@@]2(C)CC[C@@H](O)C[C@@H]12 [OCA, 6α-ethyl-chenodeoxycholic acid]",Reduction of liver cholesterol content compared to vehicle,,32%
same,Liver Cholesterol,[1],5.63 ± 0.495
same,Liver Triglyceride,[1],49.81 ± 1.63
